Test results published in patent US9833497B2, “Human originated EGF domain proteins and use of the same” (CHENGDU SOURCEBIO LIMITED-LIABILITY COMPANY, priority 2013, dated 2017).

Experiments:
Type in all cases: cell-based
Pseudomonas aeruginosa = assay: MIC against Gram-negative bacteria: Pseudomonas aeruginosa; conditions: for MIC P. aeruginosa / MIC against P. aeruginosa: 5×10^5 CFU/mL
Method in brief: (§1)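 Bacteria grown in LB at 37° C with shaking to McFarland 0.5, pelleted and resuspended in fresh LB, then seeded at 5×10^5 CFU/mL per well. Purified recombinant human EGF domain proteins were two-fold serially diluted in triplicate and plates shaken at 37° C, 175 rpm. MIC is the lowest protein concentration with no bacterial growth.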

Klebsiella pneumonia = assay: MIC against Gram-negative bacteria: Klebsiella pneumonia; conditions: for MIC K. pneumonia / MIC against K. pneumonia: 5×10^5 CFU/mL
Method in brief: as §1

Proteus vulgaris = assay: MIC against Gram-negative bacteria: Proteus vulgaris; conditions: for MIC P. vulgaris / MIC against P. vulgaris: 5×10^5 CFU/mL
Method in brief: as §1

Moraxella catarrhalis = assay: MIC against Gram-negative bacteria: Moraxella catarrhalis; conditions: for MIC M. catarrhalis / MIC against M. catarrhalis: 5×10^5 CFU/mL
Method in brief: as §1

Enterobacter cloacae = assay: MIC against Gram-negative bacteria: Enterobacter cloacae; conditions: for MIC E. cloacae / MIC against E. cloacae: 5×10^5 CFU/mL
Method in brief: as §1

Citrobacter diversus = assay: MIC against Gram-negative bacteria: Citrobacter diversus; conditions: for MIC C. diversus / MIC against C. diversus: 5×10^5 CFU/mL
Method in brief: as §1

E. coli DH5α = assay: Antibacterial activity: MIC and growth curve against E. coli DH5α in 96-well plate; conditions: minimal inhibitory concentration against E. coli DH5α; 96-well plate, 5×10^5 CFU/mL, 37° C., judged after 8 h
Method in brief: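 Log-phase DH5α (OD600 about 0.5, 37° C, 185 rpm in LB) was pelleted, resuspended in fresh LB and seeded at 5×10^5 CFU/mL with recombinant protein at 50, 25 and 12.5 μg/mL (two-fold series), in triplicate. Plates were shaken at 175 rpm, 37° C, and OD600 was read every 30 min. MIC was the lowest concentration with no growth.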

Aeromonas hydrophila = assay: MIC against Gram-negative bacteria: Aeromonas hydrophila; conditions: for MIC A. hydrophila / MIC against A. hydrophila: 5×10^5 CFU/mL
Method in brief: as §1

Serratia marcescens = assay: MIC against Gram-negative bacteria: Serratia marcescens; conditions: for MIC S. marcescens / MIC against S. marcescens: 5×10^5 CFU/mL
Method in brief: as §1

E. coli BL21 = assay: MIC against Gram-negative bacteria: E. coli BL21; conditions: for MIC E. coli BL21 / MIC against E. coli BL21: 5×10^5 CFU/mL
Method in brief: as §1

Proteus mirabilis = assay: MIC against Gram-negative bacteria: Proteus mirabilis; conditions: for MIC P. mirabilis / MIC against P. mirabilis: 5×10^5 CFU/mL
Method in brief: as §1

[1] = 10 h cultivation at 37° C., two-fold serial dilution

Q: “PRT939 (DMNECLSEPCKNGGTCSDYVNSYTCKCQAGFDGVHCE; listed as Homo sapiens)” was tested. Which MIC (Pseudomonas aeruginosa; P. aeruginosa, 10 h cultivation at 37° C.) did it give?
A: The MIC was 12.5 µg/mL.

Q: What about the MIC (Klebsiella pneumonia; K. pneumonia, 10 h cultivation at 37° C.) of the same substance?
A: The MIC was 12.5 µg/mL.

Q: And the MIC (Proteus vulgaris; P. vulgaris, 10 h cultivation at 37° C.)?
A: Its MIC is 12.5 µg/mL.

Q: And the MIC (Moraxella catarrhalis; M. catarrhalis, 10 h cultivation at 37° C.)?
A: Its MIC is 12.5 µg/mL.

Q: And the MIC (Enterobacter cloacae; E. cloacae, 10 h cultivation at 37° C.)?
A: Its MIC is 50 µg/mL.

Q: And the MIC (Citrobacter diversus; C. diversus, 10 h cultivation at 37° C.)?
A: Its MIC is 50 µg/mL.

Q: What about the MIC (E. coli DH5α) of the same substance?
A: Its MIC is 50 µg/mL.

Q: What about the MIC (Aeromonas hydrophila; A. hydrophila, 10 h cultivation at 37° C.) of the same substance?
A: Its MIC is 12.5 µg/mL.

Q: And the MIC (Serratia marcescens; S. marcescens, 10 h cultivation at 37° C.)?
A: The MIC was 50 µg/mL.

Q: What about the MIC (E. coli BL21; E. coli BL21, 10 h cultivation at 37° C.) of the same substance?
A: Its MIC is 25 µg/mL.

Q: What about the MIC (Proteus mirabilis; P. mirabilis, 10 h cultivation at 37° C.) of the same substance?
A: The MIC was 50 µg/mL.

Q: Which results are given for “PRT1117 (EVDECASAPCLHGGSCLDGVGSFRCVCAPGYGGTRCQ; listed as Homo sapiens)”?
A: MIC P. aeruginosa (Pseudomonas aeruginosa; [1]): 50 µg/mL; MIC K. pneumonia (Klebsiella pneumonia; [1]): 12.5 µg/mL; MIC P. vulgaris (Proteus vulgaris; [1]): 12.5 µg/mL; MIC M. catarrhalis (Moraxella catarrhalis; [1]): 12.5 µg/mL; MIC E. cloacae (Enterobacter cloacae; [1]): 50 µg/mL; MIC C. diversus (Citrobacter diversus; [1]): 25 µg/mL; MIC (E. coli DH5α): 50 µg/mL; MIC A. hydrophila (Aeromonas hydrophila; [1]): 12.5 µg/mL; MIC S. marcescens (Serratia marcescens; [1]): 25 µg/mL; MIC E. coli BL21 (E. coli BL21; [1]): 12.5 µg/mL; MIC P. mirabilis (Proteus mirabilis; [1]): 25 µg/mL

Q: “PRT732 (SVNPCAFSRCSHLCLLSSQGPHFYSCVCPSGWSLSPDLLNCL; listed as Homo sapiens)” was tested. Which “MIC P. aeruginosa” value (Pseudomonas aeruginosa; 96-well plate, 37° C., 10 h) did it give?
A: The value was 12.5 µg/mL.

Q: What about the “MIC K. pneumonia” value (Klebsiella pneumonia; 96-well plate, 37° C., 10 h) of the same substance?
A: The value was 50 µg/mL.

Q: And the “MIC P. vulgaris” value (Proteus vulgaris; 96-well plate, 37° C., 10 h)?
A: Its value is 25 µg/mL.

Q: What about the “MIC M. catarrhalis” value (Moraxella catarrhalis; 96-well plate, 37° C., 10 h) of the same substance?
A: The value was 50 µg/mL.

Q: What about the “MIC E. cloacae” value (Enterobacter cloacae; 96-well plate, 37° C., 10 h) of the same substance?
A: Its value is 25 µg/mL.

Q: What about the “MIC C. diversus” value (Citrobacter diversus; 96-well plate, 37° C., 10 h) of the same substance?
A: The value was 25 µg/mL.

Q: And the MIC (E. coli DH5α)?
A: The MIC was 12.5 µg/mL.

Q: And the “MIC A. hydrophila” value (Aeromonas hydrophila; 96-well plate, 37° C., 10 h)?
A: Its value is 12.5 µg/mL.

Q: What about the “MIC S. marcescens” value (Serratia marcescens; 96-well plate, 37° C., 10 h) of the same substance?
A: The value was 12.5 µg/mL.

Q: What about the “MIC E. coli BL21” value (E. coli BL21; 96-well plate, 37° C., 10 h) of the same substance?
A: The value was 50 µg/mL.

Q: What about the “MIC P. mirabilis” value (Proteus mirabilis; 96-well plate, 37° C., 10 h) of the same substance?
A: The value was 25 µg/mL.

Q: “PRT493 (CDCPHTQNTCDPETGECVCPPHTQGVKCEECEDGHWGYDAEVGCQA; listed as Homo sapiens)” was tested. Which “MIC against P. aeruginosa” value (Pseudomonas aeruginosa; 96-well plate, 37° C., 10 h) did it give?
A: The value was 12.5 µg/mL.

Q: What about the “MIC against K. pneumonia” value (Klebsiella pneumonia; 96-well plate, 37° C., 10 h) of the same substance?
A: Its value is 50 µg/mL.

Q: What about the “MIC against P. vulgaris” value (Proteus vulgaris; 96-well plate, 37° C., 10 h) of the same substance?
A: The value was 12.5 µg/mL.

Q: What about the “MIC against M. catarrhalis” value (Moraxella catarrhalis; 96-well plate, 37° C., 10 h) of the same substance?
A: The value was 50 µg/mL.

Q: And the “MIC against E. cloacae” value (Enterobacter cloacae; 96-well plate, 37° C., 10 h)?
A: Its value is 25 µg/mL.

Q: What about the “MIC against C. diversus” value (Citrobacter diversus; 96-well plate, 37° C., 10 h) of the same substance?
A: Its value is 25 µg/mL.

Q: And the MIC (E. coli DH5α)?
A: Its MIC is 12.5 µg/mL.

Q: What about the “MIC against A. hydrophila” value (Aeromonas hydrophila; 96-well plate, 37° C., 10 h) of the same substance?
A: Its value is 12.5 µg/mL.

Q: What about the “MIC against S. marcescens” value (Serratia marcescens; 96-well plate, 37° C., 10 h) of the same substance?
A: Its value is 25 µg/mL.

Q: And the “MIC against E. coli BL21” value (E. coli BL21; 96-well plate, 37° C., 10 h)?
A: Its value is 50 µg/mL.

Q: What about the “MIC against P. mirabilis” value (Proteus mirabilis; 96-well plate, 37° C., 10 h) of the same substance?
A: The value was 25 µg/mL.

Q: “PRT1238 (IGEACPKLCSGHGYCTTGAICICDESFQGDDCS; listed as Homo sapiens)” was tested. Which “MIC against P. aeruginosa” value (Pseudomonas aeruginosa; Pseudomonas aeruginosa, 96-well plate, 37° C., 10 h) did it give?
A: The value was 50 µg/mL.

Q: What about the “MIC against K. pneumonia” value (Klebsiella pneumonia; Klebsiella pneumonia, 96-well plate, 37° C., 10 h) of the same substance?
A: Its value is 12.5 µg/mL.

Q: And the “MIC against P. vulgaris” value (Proteus vulgaris; Proteus vulgaris, 96-well plate, 37° C., 10 h)?
A: Its value is 25 µg/mL.

Q: What about the “MIC against M. catarrhalis” value (Moraxella catarrhalis; Moraxella catarrhalis, 96-well plate, 37° C., 10 h) of the same substance?
A: The value was 25 µg/mL.

Q: What about the “MIC against E. cloacae” value (Enterobacter cloacae; Enterobacter cloacae, 96-well plate, 37° C., 10 h) of the same substance?
A: Its value is 50 µg/mL.

Q: And the “MIC against C. diversus” value (Citrobacter diversus; Citrobacter diversus, 96-well plate, 37° C., 10 h)?
A: The value was 50 µg/mL.

Q: And the MIC (E. coli DH5α)?
A: The MIC was 25 µg/mL.

Q: And the “MIC against A. hydrophila” value (Aeromonas hydrophila; Aeromonas hydrophila, 96-well plate, 37° C., 10 h)?
A: The value was 12.5 µg/mL.

Q: What about the “MIC against S. marcescens” value (Serratia marcescens; Serratia marcescens, 96-well plate, 37° C., 10 h) of the same substance?
A: The value was 50 µg/mL.

Q: What about the “MIC against E. coli BL21” value (E. coli BL21; E. coli BL21, 96-well plate, 37° C., 10 h) of the same substance?
A: The value was 12.5 µg/mL.

Q: And the “MIC against P. mirabilis” value (Proteus mirabilis; Proteus mirabilis, 96-well plate, 37° C., 10 h)?
A: The value was 12.5 µg/mL.

Q: “PRT546 (CDCHEAGTAPGVCDPLTGQCYCKENVQGPKCDQCSLGTFSLDAANPKGCTR; listed as Homo sapiens)” was tested. Which “MIC against P. aeruginosa” value (Pseudomonas aeruginosa; 96-well plate, 37° C., 10 h) did it give?
A: The value was 12.5 µg/mL.

Q: And the “MIC against K. pneumonia” value (Klebsiella pneumonia; 96-well plate, 37° C., 10 h)?
A: The value was 50 µg/mL.

Q: What about the “MIC against P. vulgaris” value (Proteus vulgaris; 96-well plate, 37° C., 10 h) of the same substance?
A: The value was 25 µg/mL.

Q: And the “MIC against M. catarrhalis” value (Moraxella catarrhalis; 96-well plate, 37° C., 10 h)?
A: The value was 50 µg/mL.

Q: What about the “MIC against E. cloacae” value (Enterobacter cloacae; 96-well plate, 37° C., 10 h) of the same substance?
A: The value was 12.5 µg/mL.

Q: And the “MIC against C. diversus” value (Citrobacter diversus; 96-well plate, 37° C., 10 h)?
A: Its value is 12.5 µg/mL.

Q: What about the MIC (E. coli DH5α) of the same substance?
A: Its MIC is 12.5 µg/mL.

Q: What about the “MIC against A. hydrophila” value (Aeromonas hydrophila; 96-well plate, 37° C., 10 h) of the same substance?
A: Its value is 50 µg/mL.

Q: And the “MIC against S. marcescens” value (Serratia marcescens; 96-well plate, 37° C., 10 h)?
A: Its value is 50 µg/mL.

Q: And the “MIC against E. coli BL21” value (E. coli BL21; 96-well plate, 37° C., 10 h)?
A: Its value is 50 µg/mL.

Q: And the “MIC against P. mirabilis” value (Proteus mirabilis; 96-well plate, 37° C., 10 h)?
A: Its value is 12.5 µg/mL.

Q: Which results are given for “PRT510 (CDCFLPGTDATTCDSETKKCSCSDQTGQCTCKVNVEGIHCDRCRPGKFGLDAKNPLGCSS; listed as Homo sapiens)”?
A: MIC against P. aeruginosa (Pseudomonas aeruginosa; 96-well plate, 37° C., 10 h): 12.5 µg/mL; MIC against K. pneumonia (Klebsiella pneumonia; 96-well plate, 37° C., 10 h): 25 µg/mL; MIC against P. vulgaris (Proteus vulgaris; 96-well plate, 37° C., 10 h): 25 µg/mL; MIC against M. catarrhalis (Moraxella catarrhalis; 96-well plate, 37° C., 10 h): 25 µg/mL; MIC against E. cloacae (Enterobacter cloacae; 96-well plate, 37° C., 10 h): 50 µg/mL; MIC against C. diversus (Citrobacter diversus; 96-well plate, 37° C., 10 h): 12.5 µg/mL; MIC (E. coli DH5α): 50 µg/mL; MIC against A. hydrophila (Aeromonas hydrophila; 96-well plate, 37° C., 10 h): 25 µg/mL; MIC against S. marcescens (Serratia marcescens; 96-well plate, 37° C., 10 h): 12.5 µg/mL; MIC against E. coli BL21 (E. coli BL21; 96-well plate, 37° C., 10 h): 25 µg/mL; MIC against P. mirabilis (Proteus mirabilis; 96-well plate, 37° C., 10 h): 50 µg/mL
